According to US10287265B2, “Enantiomers of 8-hydroxyquinoline derivatives and the synthesis thereof” (AVIDIN Co. Ltd., priority 2015, dated 2019):
“Also recorded” adds a separate entry of the source.

How the values were obtained:
C57BL6/J mice [1] = test: Short-term memory impairment caused by amyloid peptide aggregates (icv Aβ oligomers), Y maze test; assay type: in vivo, mouse; conditions: 4 mg/kg body weight per os once daily for four days; Y maze at day 4 post Aβ
Procedure: (§1) In vivo experiments were carried out according to the National Institute of Health guidelines for the care and use of laboratory animals, approved by the French Ministry for Research and Technology. In the course of experiments, animals were housed at a standard temperature (22±1° C.) and in a light-controlled environment (lights on from 7 a.m. to 8 p.m.) with ad libitum access to food and water. Male C57BL/6 mice (C57BL/6J Rj, ref. SC-CJ-12w-M, Janvier, France) were housed 5 animals per cage. From one week before the start of the experiment until the end of the experiment, mice were housed individually. Animals were monitored twice-a-day by laboratory personnel (8 a.m. and 4 p.m.). In this project, young (14 weeks old) as well as aged (15-16 months old) mice were used. Experiments were carried out using 12 mice per experimental group.
Investigation of short-term working memory—Y maze test Y maze tests were carried out as previously described. Prior to testing, mice were brought to the experimental room for at least 30 min to acclimatize to experimental room conditions. The Y maze is made of opaque Plexiglas and each arm is 40 cm long, 16 cm high, 9 cm wide and positioned at equal angles. The apparatus was placed in the test room in such a way that it was brightened homogeneously with 12-15 lux in the arms as well as in the central zone. One mouse at a time was placed at the end of one arm and was allowed to move in the maze freely during a 5 min examination. Each arm entry was recorded with those entries being counted where the mouse completely placed its hind paws in the chosen arm. […] Results were calculated as the percentage of the ratio of actual detected alternations to possible alternations (defined as the number of total arm entries minus 2).
For the examination of memory impairment caused by Aβ oligomers, a mouse model developed and validated by SynAging was used. […] At day 4 post Aβ treatment, short-term memory was assessed with the Y maze test. […]
At day 4 post Aβ treatment, short-term memory was assessed with the Y maze test.

C57BL6/J mice [2] = test: Scopolamine-induced short-term memory impairment, Y maze test; assay type: in vivo, mouse; conditions: per os gavage; scopolamine 0.6 mg/kg i.p. 30 min prior to Y maze test
Procedure: as §1
Investigation of short-term working memory—Y maze test Y maze tests were carried out as previously described. Prior to testing, mice were brought to the experimental room for at least 30 min to acclimatize to experimental room conditions. […] Each arm entry was recorded with those entries being counted where the mouse completely placed its hind paws in the chosen arm. […] Results were calculated as the percentage of the ratio of actual detected alternations to possible alternations (defined as the number of total arm entries minus 2). […]

HMOX-1 gene = test: Gene expression in primary astrocytes by qRT-PCR; assay type: cell-based, rat; conditions: 3 h, Example 2 at 330 nM and 1000 nM, PBT2 at 1000 nM
Procedure: (§2) Pure astrocyte culture was obtained from neonatal rats according to the protocol found in literature (Protocols for Neural Cell Culture 2001, pp 117-127. ch 9. Ruth Cole, Jean de Vellis. Preparation of Astrocyte, Oligodendrocyte, and Microglia Cultures from Primary Rat Cerebral Cultures). Astrocytes (1 million) were cultured in 100 mm TC-treated culture dishes (Orange Scientific, Belgium) in an incubator set at 37° C. and 5% CO2 with humid air. The R-enantiomeric derivative according to Example 2 was added to cells in two final concentrations: 330 nM and 1000 nM. Cells were also treated with 1000 nM PBT2 which bears the basic structure of the R-enantiomer according to Example 2 (8-hydroxy-quinoline ring) but contains conformational differences and was developed for the treatment of neurodegenerative disorders (Pub. No.: WO/2004/007461). Treatments were carried out with a 100 μM DMSO-based stock solution. Control cells were treated with the same amount of DMSO without the agent. Each treatment was conducted in three separate culture dishes. After treatment, cells were incubated at 37° C. for 3 h, then the medium was removed, cells were washed with PBS and total RNA was extracted from cells with the Accuzol™ Total RNA Extraction Solution (Bioneer, Daejeon, South Korea), according to the manufacturer's protocol. cDNA transcription was carried out with the High Capacity cDNA Reverse Transcription Kit (Life Technologies, Foster City, Calif., USA). During the test, the expression of four genes (PGK1, EPO, HMOX-1, VEGF) controlled by HIF1a was determined by qRT-PCR, with HPRT gene serving as a control. Relative expression of genes in treated samples was compared to untreated controls. The PCR was conducted with a LightCycler® Nano Instrument (Roche, Budapest, Hungary) in the presence of UPL (Universal Probe Library) probes (HPRT: 95, HMOX1: 4, EPO: 16, VEGF: 1, PGK1: 66), specific primers (HPRT1: 5′-gaccggttctgtcatgtcg-3′, HPRT2: 5′-[…]-3′; HMOX1-1: 5′-[…]-3′, HMOX1-2: 5′-ctgcagctcctcaaacagc-3′; EPO1: 5′-[…]-3′, EPO2: 5′-ccttctgcacagcccatt-3′; VEGF1: 5′-[…]-3′, VEGF2: 5′-[…]-3′; PGK1-1: 5′-[…]-3′, PGK1-2: 5′-gacttggctccattgtcca-3′) in 20 μl PCR reaction volume with 20 ng cDNA template and 10 μl Lightcycler DNA Probes Master (5×) Reagent Kit (Roche) according to the following protocol: activation of enzyme at 95° C. for 10 min, 50 cycles: denaturation at 95° C. for 15 sec, hybridization and polymerization, then detection at 60° C. for 30 sec.

PGK1 gene = test: Gene expression in primary astrocytes by qRT-PCR; assay type: cell-based, rat; conditions: in the cells
Procedure: as §2

EPO gene = test: Gene expression in primary astrocytes by qRT-PCR; assay type: cell-based, rat; conditions: 3 h, Example 2 at 330 nM and 1000 nM, PBT2 at 1000 nM
Procedure: as §2

VEGF gene = test: Gene expression in primary astrocytes by qRT-PCR; assay type: cell-based, rat; conditions: in the cells
Procedure: as §2

[3] = test system: BALB/c ear skin graft on C57BL/6 recipient mice; test: Mouse skin transplantation, graft rejection scoring; assay type: in vivo; conditions: 5 mg/kg once every day from transplantation; Example 2 orally, tacrolimus intraperitoneal; scoring at day 9 and day 10
Procedure: Mouse skin transplantation is a standard method to assay host T cell responses to MHC-disparate donor antigens, which protocol was followed in the present example (Garrod and Cahalan; 2008). Briefly, WT C57BL/6 recipient mice (8-12 weeks old) and WT BALB/c donor mice (8-12 weeks old) were anesthetized with a combination of 10 mg/kg Xylazine and 100 mg/kg Ketamine administered by i.p. injection and 0.05 mg/kg Buprenorphine was administered by subcutaneous injection for analgesia. Ear skin (1.0 cm2) from the WT BALB/c donor mouse was grafted onto the flank of the WT C57BL/6 recipient. The implanted skin (graft) was covered with a sterile bandage, which was removed on day 7 post-transplant.
Recipients received either no treatment (controls), or treated with compound according to Example 2 orally at 5 mg/kg dose, once every day until the end of the experiment from the day of transplantation. […]
Different scores were used to define the quality of the grafts: intact grafts (Score 0), early stages of rejection (Score 1-4, corresponding to first clear signals of graft rejection: 1; >25% rejection rate: 2; >50% rejection rate: 3; >75% rejection rate: 4) up to complete graft rejection (Score 5). […] Average scores with SEM were calculated for each group.

| Compound | inhibition of short-term memory impairment caused by fibrillar aggregates of amyloid peptides (C57BL6/J mice [1]) | inhibition of scopolamine-induced short-term memory impairment (C57BL6/J mice [2]) | activation of HMOX-1 gene expression (HMOX-1 gene) | increase of PGK-1 gene activity (PGK1 gene) | activation of EPO gene expression (EPO gene) | increase of VEGF gene activity (VEGF gene) | skin graft rejection score (0-5) [3] |
| --- | --- | --- | --- | --- | --- | --- | --- |
| Cc1ccnc(N[C@@H](c2ccc(C(F)(F)F)cc2)c2ccc3cccnc3c2O)n1 [Example 3, 7-[(S)-[(4-Methylpyrimidin-2-yl)amino][4-(trifluoromethyl)phenyl]methyl]quinolin-8-ol] | did not inhibit | did not inhibit | capable to increase the gene activity; also recorded: caused the induction of HMOX-1 in astrocytes | capable to increase the gene activity | capable to increase the gene activity; also recorded: highest inductive effect | capable to increase the gene activity | – |
| C=CC[C@@H]1/C=C(\C)C[C@H](C)C[C@H](OC)[C@H]2O[C@@](O)(C(=O)C(=O)N3CCCC[C@H]3C(=O)O[C@H](/C(C)=C/[C@@H]3CC[C@@H](O)[C@H](OC)C3)[C@H](C)[C@@H](O)CC1=O)[C@H](C)C[C@@H]2OC [tacrolimus, reference compound] | – | – | – | – | – | – | smaller score values both on day 9 and on day 10 |
| CN(C)Cc1ccc2c(Cl)cc(Cl)c(O)c2n1 [PBT2, reference compound] | – | – | did not induced differences in gene activity | – | did not induced differences in gene activity | – | – |
